Data from PubChem BioAssay (NCI).
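Protocol summary: plate cells (96-well), add compound at 5 concentrations, incubate 48 h, interpolate endpoints linearly. GI50 is the concentration that inhibits growth by half. TGI marks complete inhibition of growth.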

Columns and labels:
Assay in all cases: inhibition of tumour cell growth, NCI panel, 48 h; in the data active = GI50 below about 0.43 µM; inactive = the rest
[1] = test system: 786-0 renal
[2] = test system: A549 NSCLC
[3] = test system: ACHN renal
[4] = test system: BT-549 breast
[5] = test system: CAKI-1 renal
[6] = test system: COLO 205 colon
[7] = test system: DU-145 prostate
[8] = test system: EKVX NSCLC
[9] = test system: HCT-116 colon
[10] = test system: HCT-15 colon
[11] = test system: HL-60(TB) leukemia
[12] = test system: HOP-62 NSCLC
[13] = test system: HOP-92 NSCLC
[14] = test system: HS 578T breast
[15] = test system: HT29 colon
[16] = test system: IGROV1 ovarian
[17] = test system: K-562 leukemia
[18] = test system: KM12 colon
[19] = test system: LOX IMVI melanoma
[20] = test system: M14 melanoma
[21] = test system: MALME-3M melanoma
[22] = test system: MCF7 breast
[23] = test system: MDA-MB-231 breast
[24] = test system: MDA-MB-435
[25] = test system: MOLT-4 leukemia
[26] = test system: NCI-H226 lung
[27] = test system: NCI-H23 lung
[28] = test system: NCI-H522 lung
[29] = test system: NCI/ADR-RES ovarian
[30] = test system: OVCAR-3 ovarian
[31] = test system: OVCAR-4 ovarian
[32] = test system: OVCAR-5 ovarian
[33] = test system: PC-3 prostate
[34] = test system: RPMI-8226 leukemia
[35] = test system: RXF 393 renal
[36] = test system: SF-268 CNS
[37] = test system: SF-295 CNS
[38] = test system: SF-539 CNS
[39] = test system: SK-MEL-2 melanoma
[40] = test system: SK-MEL-28 melanoma
[41] = test system: SK-MEL-5 melanoma
[42] = test system: SK-OV-3 ovarian
[43] = test system: SN12C renal
[44] = test system: SNB-19 CNS
[45] = test system: SNB-75 CNS
[46] = test system: SR leukemia
[47] = test system: SW-620 colon
[48] = test system: T-47D breast
[49] = test system: TK-10 renal
[50] = test system: U251 CNS
[51] = test system: UACC-257 melanoma
[52] = test system: UACC-62 melanoma
[53] = test system: UO-31 renal
[54] = test system: A498 renal
[55] = test system: CCRF-CEM leukemia
[56] = test system: HCC-2998 colon
[57] = test system: NCI-H460 lung
[58] = test system: OVCAR-8 ovarian

CCn1c(-c2cc3ccccc3cc2OC(=O)c2ccccc2)n[nH]c1=S
44.8 µM: TGI [14]
inactive: GI50 [1] > 50 µM | GI50 [2] > 50 µM | GI50 [3] > 50 µM | GI50 [4] 34 µM | GI50 [5] 24.7 µM | GI50 [6] > 50 µM | GI50 [7] > 50 µM | GI50 [8] 10.7 µM | GI50 [9] 43.1 µM | GI50 [10] > 50 µM | GI50 [11] 32.7 µM | GI50 [12] > 50 µM | GI50 [13] > 50 µM | GI50 [14] 11.6 µM | GI50 [15] 42.4 µM | GI50 [16] 1.51 µM | GI50 [17] 22.5 µM | GI50 [18] 42.3 µM | GI50 [19] 26.6 µM | GI50 [20] > 50 µM | GI50 [21] > 50 µM | GI50 [22] > 50 µM | GI50 [23] 25.2 µM | GI50 [24] > 50 µM | GI50 [25] 28 µM | GI50 [26] > 50 µM | GI50 [27] 22.5 µM | GI50 [28] 11 µM | GI50 [29] 23.2 µM | GI50 [30] 3.19 µM | GI50 [31] > 50 µM | GI50 [32] > 50 µM | GI50 [33] 19.6 µM | GI50 [34] 9.96 µM | GI50 [35] > 50 µM | GI50 [36] > 50 µM | GI50 [37] 27 µM | GI50 [38] > 50 µM | GI50 [39] 25.5 µM | GI50 [40] > 50 µM | GI50 [41] 19.8 µM | GI50 [42] > 50 µM | GI50 [43] 35.9 µM | GI50 [44] > 50 µM | GI50 [45] > 50 µM | GI50 [46] 19.8 µM | GI50 [47] > 50 µM | GI50 [48] 38.3 µM | GI50 [49] > 50 µM | GI50 [50] > 50 µM | GI50 [51] > 50 µM | GI50 [52] 28.8 µM | GI50 [53] 21.1 µM
23.8 µM: TGI [34]
45.4 µM: TGI [28]
> 50 µM: TGI [1] | TGI [2] | TGI [3] | TGI [4] | TGI [5] | TGI [6] | TGI [7] | TGI [8] | TGI [9] | TGI [10] | TGI [11] | TGI [12] | TGI [13] | TGI [15] | TGI [17] | TGI [18] | TGI [19] | TGI [20] | TGI [21] | TGI [22] | TGI [23] | TGI [24] | TGI [25] | TGI [26] | TGI [27] | TGI [29] | TGI [30] | TGI [31] | TGI [32] | TGI [33] | TGI [35] | TGI [36] | TGI [37] | TGI [38] | TGI [39] | TGI [40] | TGI [41] | TGI [42] | TGI [43] | TGI [44] | TGI [45] | TGI [46] | TGI [47] | TGI [48] | TGI [49] | TGI [50] | TGI [51] | TGI [52] | TGI [53]
8.54 µM: TGI [16]

COc1cc(Nc2ncc(-c3ccccc3)o2)cc(OC)c1OC
inactive: GI50 [1] 5.13 µM | GI50 [54] 0.607 µM | GI50 [2] 1.66 µM | GI50 [3] 1.18 µM | GI50 [4] 3.24 µM | GI50 [55] 7.32 µM | GI50 [6] 2.15 µM | GI50 [7] 5.98 µM | GI50 [8] > 6.86 µM | GI50 [56] 5.08 µM | GI50 [9] 1.45 µM | GI50 [10] 0.547 µM | GI50 [11] 0.858 µM | GI50 [12] 3.47 µM | GI50 [13] 4.27 µM | GI50 [15] 0.951 µM | GI50 [16] 1.28 µM | GI50 [19] 2.14 µM | GI50 [20] 1.26 µM | GI50 [21] 6.29 µM | GI50 [23] 2.5 µM | GI50 [25] 4.36 µM | GI50 [26] 2.97 µM | GI50 [27] 2.84 µM | GI50 [28] 0.925 µM | GI50 [29] 1.38 µM | GI50 [30] 3.94 µM | GI50 [31] 1.05 µM | GI50 [32] 3.88 µM | GI50 [58] 8.3 µM | GI50 [33] 7.3 µM | GI50 [34] 16.3 µM | GI50 [35] 0.77 µM | GI50 [36] 4.73 µM | GI50 [37] 2.7 µM | GI50 [38] 1.53 µM | GI50 [39] 1.52 µM | GI50 [40] 4.38 µM | GI50 [42] 2.89 µM | GI50 [43] 6.35 µM | GI50 [44] 12.6 µM | GI50 [45] 0.577 µM | GI50 [47] 0.986 µM | GI50 [49] 1.62 µM | GI50 [50] 4.35 µM | GI50 [51] > 15.9 µM | GI50 [52] 2.24 µM | GI50 [53] 1.84 µM
17.4 µM: TGI [35]
24.9 µM: TGI [30]
> 5.89 µM: TGI [24]
4.55 µM: TGI [14]
> 25 µM: TGI [1] | TGI [2] | TGI [3] | TGI [4] | TGI [5] | TGI [55] | TGI [6] | TGI [7] | TGI [8] | TGI [56] | TGI [9] | TGI [10] | TGI [12] | TGI [13] | TGI [15] | TGI [16] | TGI [17] | TGI [18] | TGI [19] | TGI [20] | TGI [21] | TGI [22] | TGI [23] | TGI [25] | TGI [26] | TGI [27] | TGI [57] | TGI [28] | TGI [29] | TGI [31] | TGI [32] | TGI [58] | TGI [33] | TGI [34] | TGI [36] | TGI [37] | TGI [38] | TGI [40] | TGI [42] | TGI [43] | TGI [44] | TGI [47] | TGI [48] | TGI [49] | TGI [50] | TGI [51] | TGI [52] | TGI [53]
> 7.47 µM: TGI [54]
> 9.44 µM: TGI [11]
active: GI50 [5] 0.37 µM | GI50 [14] 0.278 µM | GI50 [17] 0.401 µM | GI50 [18] 0.152 µM | GI50 [22] 0.0695 µM | GI50 [24] 0.154 µM | GI50 [57] 0.161 µM | GI50 [41] 0.138 µM | GI50 [48] 0.231 µM
> 11.6 µM: TGI [39]
> 19.2 µM: TGI [45]
